Holding throughout (assay type): in vitro ADME
Data set [1] in a line: Metabolic stability in mouse hepatocytes. The conditions noted are these: cryopreserved hepatocytes. The protocol:
(§1) Cryopreserved hepatocytes were carefully thawed in a 37 °C water bath for approximately 1 min, and transferred to a tube containing pre-warmed thawing medium. The supernatants were removed and the pellets were resuspended in KHB at a final cell density of 1 × 10^6 cells/mL, based on hemocytometer counting using trypan blue exclusion. A ETN101 solution was prepared by dissolving ETN101 in water at 4 mM and diluted by KHB at the concentration of 4 μM of ETN101. Sixty microliters each of hepatocyte suspensions and 4 μM of ETN101 were added in a 96-well plate and incubated for 0, 5, 15, 30, and 45 min at 37 °C in a CO2 incubator. All incubations were conducted in triplicates. Reactions were terminated by the addition of 120 μL of ice-cold acetonitrile and followed by vortex mixing. After centrifugation at 13,000 rpm for 8 min at 4 °C, 5 μL of internal standard (IS, camptothecin in acetonitrile at 780 ng/mL) was added to 60 μL of supernatant. A 2 μL aliquot was injected into the LC-MS/MS system. The reliability of the analysis was confirmed by incorporating three different levels of quality control samples at the beginning and end of each analytical batch. The disappearance rate (k) of ETN101 was calculated by determined peak area ratio of ETN101 to IS over incubation period. Subsequently, half-life (t1/2), intrinsic clearance (Clint), and intrinsic hepatic clearance (Clint,hep) of ETN101 in human and animal hepatocytes were calculated using the following equation [34]: t1/2(min)=ln2/−k(elimination slope) ClintμL/min/10^6 cells=ln2/t1/2×μL incubation/hepatocytes (10^6 cells) Clint,hepmL/min/kg=Clint/1000×A×10^6 cells/g liver×B g liver/kg body weight […]
(§2) For the metabolic stability assay, an LC-MS/MS system was employed, consisting of an Agilent 1260 series HPLC system (Agilent Technologies Inc., Santa Clara, CA, USA) coupled to an API 4000 mass spectrometer (AB SCIEX, Concord, Vaughan, ON, Canada) equipped with a turbo electrospray interface. […] ETN101 and IS were detected using multiple reaction monitoring (MRM) mode under positive electrospray ionization (ESI). […]

Data set [2] is described as follows: Metabolic stability in dog hepatocytes. The conditions noted are these: cryopreserved hepatocytes. The protocol: as §1, §2
The test system of data set [3] is NAT2 in human liver cytosol. Briefly: Human liver cytosol incubation with NAT2 inhibitor 1-aminobenzotriazole. The conditions noted are these: 30 min at 37 °C, M1 1 μM. The procedure: For the chemical inhibition assay, human liver cytosol was prepared in 0.05 M potassium phosphate buffer at a concentration of 1 mg/mL prior to use. A 1 μL of M1 (final concentration: 1 μM) solution was spiked in 223 μL of human liver cytosol preparations. One microliter each of caffeic acid and 1-aminobenzotriazole were added and incubated as NAT1 and NAT2 inhibitors, respectively. The final concentrations of the NAT inhibitors were 0, 100, and 1000 μM in each incubate. After 5 min of pre-warming of the incubates at 37 °C, the metabolic reaction was initiated by adding 25 μL of acetyl-CoA regenerating system to the incubates. The samples were incubated in triplicate for 0 min or 30 min at 37 °C. The reaction was stopped by adding 250 μL of ice-cold acetonitrile containing the IS (camptothecin, 500 ng/mL) and vortex-mixing. Following centrifugation at 13,000 rpm for 5 min at 4 °C, a 2 μL aliquot of the supernatant was injected into the LC-MS/MS system. The percentage of remaining M1 and the formation of M2 were evaluated to determine the involvement of the NAT isozyme in N-acetylation of M1.
For enzyme characterization, an Agilent 6460 triple quadrupole mass spectrometer coupled with a 1260 HPLC system (Agilent Technologies, Santa Clara, CA, USA) and a Kinetex Halo® C18 column (2.7 μm, 2.1 × 50 mm, Advanced Material Technology, Wilmington, DE, USA) were used for chromatographic separation. The mobile phases comprised 0.1% (v/v) formic acid in water (mobile phase A) and 0.1% formic acid (v/v) in acetonitrile (mobile phase B). The mobile phase flowed at a rate of 0.3 mL/min, and the gradient elution program proceeded as follows: starting with 10% B for 0.5 min, a linear increase to 90% B for 0.2 min, maintaining 90% B for 1.5 min, and then returning to initial conditions for 0.2 min. Subsequently, the column was reconditioned using 10% B for 2.6 min. The column and auto-sampler were maintained at 40 °C and 4 °C, respectively. ETN101, M1, and M2 were detected via MRM using ESI in the positive mode. […]

This note sets out measurements from PMC11356571, “The Comparative Metabolism of a Novel Hepatocellular Carcinoma Therapeutic Agent, 2,3-Diamino-N-(4-(benzo[d]thiazol-2-yl)phenyl)propanamide, in Human and Animal Hepatocytes” (Metabolites, 2024).

For `NCC(N)C(=O)Nc1ccc(-c2nc3ccccc3s2)cc1` (stereo not drawn) [ETN101, 2,3-diamino-N-(4-(benzo[d]thiazol-2-yl)phenyl)propanamide], the half-life at 2 µM in data set [1] (45 min incubation at 37 °C) was 2.01 h; in data set [2] (45 min incubation at 37 °C), 1.88 h. For the same compound, the values for the hepatocyte CLint at 2 µM in data set [1] (45 min incubation at 37 °C) and in data set [2] (45 min incubation at 37 °C) were 11.5 µL/min/1e6 cells and 12.3 µL/min/1e6 cells, respectively. For the same compound, the CLint scaled at 2 µM was found to be 136 mL/min/kg in data set [1] (scaled from Clint) and 84.6 mL/min/kg in data set [2] (scaled from Clint).

Take `Nc1ccc(-c2nc3ccccc3s2)cc1` [M1, 2-(4-aminophenyl)benzothiazole]: the “Percentage remaining of M1” value in data set [3] (1-aminobenzotriazole 0 μM) was 86.7%; in data set [3] (1-aminobenzotriazole 100 μM), 89.4%; in data set [3] (1-aminobenzotriazole 1000 μM), 90.9%.
